Experimental data taken from US12491170B2, “Stable treprostinil prodrugs” (United Therapeutics Corporation, priority 2020, dated 2025).
Like-named read-outs stand apart in the source and are kept apart here.

Experiments:
[1] = dog
[2] = Stability in liver microsomes, rat
[3] = Stability in cryopreserved hepatocytes, human; conditions: for AUC: human
[4] = Stability in cryopreserved hepatocytes, dog; conditions: for AUC: dog
[5] = Stability in liver microsomes, dog
[6] = Stability in cryopreserved hepatocytes, rat; conditions: for AUC: rat
[7] = Stability in liver microsomes, human; conditions: for AUC: human
[8] = rat

SMILES | AUC [1] | Trep Concentration 0 min [2] | Trep Concentration 10 min [2] | Trep Concentration 20 min [2] | Trep Concentration 30 min [2] | Trep Concentration 60 min [2] | Trep Concentration (μM) 0 min [3] | Trep Concentration (μM) 15 min [3] | Trep Concentration (μM) 30 min [3] | Trep Concentration (μM) 60 min [3] | Trep Concentration (μM) 120 min [3] | AUC [3] | Trep Concentration (μM) 0 min [4] | Trep Concentration (μM) 30 min [4] | Trep Concentration (μM) 60 min [4] | Trep Concentration (μM) 120 min [4] | AUC [4] | Trep Concentration 0 min [5] | Trep Concentration 10 min [5] | Trep Concentration 20 min [5] | other results
CCCCCC(CCC1C(O)CC2Cc3c(cccc3OCC(=O)O)CC21)OCCN1CCOCC1 (centres unmarked) [L] | 0.23 µmol·min/L | 0.00345 µM | 0.00356 µM | 0.00419 µM | 0.00488 µM | 0.00552 µM | 0.00177 µM | 0.00195 µM | 0.00202 µM | 0.00194 µM | 0.00197 µM | 0.23 µmol·min/L | 0.00247 µM | 0.0106 µM | 0.00355 µM | 0.00568 µM | 0.63 µmol·min/L | 0.00302 µM | 0.00333 µM | 0.00398 µM | Trep Concentration (μM) 15 min [4]: 0.00312 µM; Trep Concentration 30 min [5]: 0.00409 µM; Trep Concentration 60 min [5]: 0.00389 µM; Trep Concentration (μM) 0 min [6]: 0 µM; Trep Concentration (μM) 15 min [6]: 0.00347 µM; Trep Concentration (μM) 30 min [6]: 0.00366 µM; Trep Concentration (μM) 60 min [6]: 0.00352 µM; Trep Concentration (μM) 120 min [6]: 0.0034 µM; AUC [6]: 0.39 µmol·min/L; Trep Concentration 0 min [7]: 0.00327 µM; Trep Concentration 10 min [7]: 0.00286 µM; Trep Concentration 20 min [7]: 0.00309 µM; Trep Concentration 30 min [7]: 0.00264 µM; Trep Concentration 60 min [7]: 0.00244 µM; AUC [7]: 0.17 µmol·min/L; AUC [8]: 0.28 µmol·min/L
CCCCCC(CCC1C(O)CC2Cc3c(cccc3OCC(=O)O)CC21)OC(C)=O (centres unmarked) [XLIII] | 54.72 µmol·min/L | 0.035 µM | 0.0741 µM | 0.111 µM | 0.145 µM | 0.206 µM | 0.00744 µM | 0.573 µM | 0.623 µM | 0.54 µM | 0.507 µM | 62.18 µmol·min/L | 0.0381 µM | 0.543 µM | 0.446 µM | 0.4 µM | 53.99 µmol·min/L | 0.964 µM | 0.917 µM | 0.899 µM | Trep Concentration 30 min [5]: 0.932 µM; Trep Concentration 60 min [5]: 0.873 µM; Trep Concentration (μM) 0 min [6]: 0.00292 µM; Trep Concentration (μM) 15 min [6]: 0.161 µM; Trep Concentration (μM) 30 min [6]: 0.266 µM; Trep Concentration (μM) 60 min [6]: 0.397 µM; Trep Concentration (μM) 120 min [6]: 0.503 µM; AUC [6]: 41.38 µmol·min/L; Trep Concentration 0 min [7]: 0.883 µM; Trep Concentration 10 min [7]: 0.681 µM; Trep Concentration 20 min [7]: 0.602 µM; Trep Concentration 30 min [7]: 0.513 µM; Trep Concentration 60 min [7]: 0.341 µM; AUC [7]: 32.62 µmol·min/L; AUC [8]: 8.02 µmol·min/L
